Earlier results as cited in patent publication US8163752B2, “Tricyclic anilide heterocyclic CGRP receptor antagonists” (Merck, Sharp & Dohme Corp., priority 2007, dated 2012).
No end group written: not given here.

Experiments:
middle meningeal artery = settings: rats, electrical stimulation of the dura mater, prior administration (Williamson et al. 1997)
facial blood flow [1] = settings: rat, trigeminal ganglion stimulation (Escott et al. 1995)
[2] = test system: acute attacks of migraine; settings: clinical trials (Olesen et al. 2004)
[3] = test system: headache induced by CGRP infusion; settings: control group (Petersen et al. 2005)
facial blood flow [4] = settings: marmoset, electrical stimulation of the trigeminal ganglion (Doods et al. 2000)

| Compound | effect on increase of middle meningeal artery diameter (middle meningeal artery) | effect on increased facial blood flow (facial blood flow [1]) | efficacy in treating acute attacks of migraine [2] | prevention of headache induced by CGRP infusion [3] | effect on increase in facial blood flow (facial blood flow [4]) |
| --- | --- | --- | --- | --- | --- |
| CGRP(8-37): a peptide CGRP antagonist; fragment of CGRP that lacks seven N-terminal amino acid residues (VTHRLAGLLSRSGGVVKNNFVPTNVGSKAF; ends and bridges not checked; UniProt P06881 90-119, looked up, fragment) | blocked | inhibited | – | – | – |
| NCCCC[C@H](NC(=O)[C@@H](Cc1cc(Br)c(O)c(Br)c1)NC(=O)N1CCC(N2Cc3ccccc3NC2=O)CC1)C(=O)N1CCN(c2ccncc2)CC1 [BIBN4096BS] | – | – | effective in treating acute attacks of migraine | able to prevent headache induced by CGRP infusion | could be blocked |
